Test system: HUVECs
Experiment: Western blot for unfolded protein response (phospho-eIF2α) and apoptosis (cleaved caspase-3)
Type: cell-based, human
Conditions: HUVECs in full serum media
Method: After treatments, cells were harvested into sample buffer containing: 0.2 M Tris-HCL, 4% SDS, 4% β-mercaptoethanol, 40% glycerol, 4 μM pyronin Y. Extracts were sheared through a 24-gauge syringe. Samples were separated by 10% SDS-PAGE and transferred to nitrocellulose membrane and probed with specific antibody as described (Lounsbury, Beddow et al. 1994). Primary antibodies are as follows: Rabbit monoclonal anti-P-eIF2α (1:1000; Cell Signaling Technology, Danvers, Mass.), rabbit monoclonal anti-Cleaved Caspase-3 (1:1000; Cell Signaling Technology, Danvers, Mass.), rabbit polyclonal anti-TARS (1:500; Santa Cruz Biotechnology, Santa Cruz, Calif.). Loading control antibodies were rabbit monoclonal anti-β-actin and anti-β-tubulin (1:1000; Cell Signaling Technology, Danvers, Mass.). Secondary antibodies were HRP-goat-anti-mouse and HRP-goat-anti-rabbit (1:5,000; Jackson Laboratories, Bar Harbor, Me.).

C[C@@H]1C[C@H](C)C[C@H](C)[C@@H](O)CC(=O)O[C@H]([C@@H]2CC[C@H]2C(=O)O)C/C=C/C=C(/C#N)[C@H](O)[C@@H](C)C1 [BC194]
stimulation of unfolded protein response (phospho-eIF2α) and apoptosis (cleaved caspase-3): high concentrations of BC194 are required
